Results reported in patent US9120744B2, “Plasminogen activator inhibitor-1 inhibitors and methods of use thereof to modulate lipid metabolism” (THE REGENTS OF THE UNIVERSITY OF MICHIGAN, priority 2007, dated 2015).
Where a name gives a salt, the structure may show the parent alone.

These molecules were tested against recombinant active human PAI-1 (Homo sapiens (Human), UniProt P05121) (assay: β-trypsin screening assay for PAI-1 inhibitors). Details: not given.
Type: biochemical
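Also: fluorogenic readout with PAI-1 and β-trypsin at 10:1 molar ratio, untreated PAI-1 wells set as 100% PAI-1 activity and β-trypsin alone as 0%.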

recombinant active human PAI-1, sequence (P05121 24-402): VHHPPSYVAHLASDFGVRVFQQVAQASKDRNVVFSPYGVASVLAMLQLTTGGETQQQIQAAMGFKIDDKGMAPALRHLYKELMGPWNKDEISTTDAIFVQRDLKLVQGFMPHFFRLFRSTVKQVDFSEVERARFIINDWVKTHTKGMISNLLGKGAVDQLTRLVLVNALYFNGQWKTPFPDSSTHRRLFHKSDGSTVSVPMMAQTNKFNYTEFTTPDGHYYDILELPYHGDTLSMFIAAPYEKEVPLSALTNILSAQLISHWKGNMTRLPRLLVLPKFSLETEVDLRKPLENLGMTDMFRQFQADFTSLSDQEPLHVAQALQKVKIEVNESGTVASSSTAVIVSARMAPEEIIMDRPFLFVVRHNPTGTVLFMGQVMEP

**Q.** For `CNCC[C@H](Oc1cccc2ccccc12)c1cccs1` [DULOXETINE HCl], which “screening hit: restoration of β-trypsin activity” value (“screening hit: restoration” below) is on record?
**A.** demonstrate PAI-1 inhibitor activity

Same assay, conditions: 10 μM compound; hit = more than 3 standard deviations above control

**Q.** How did the “screening hit: restoration” value turn out when `Clc1ccc(CONC(Cn2ccnc2)c2ccc(Cl)cc2Cl)c(Cl)c1.O=[N+]([O-])O` (stereo not shown) [OXICONAZOLE NITRATE] was run?
**A.** demonstrate PAI-1 inhibitor activity

**Q.** For SAPPANONE A DIMETHYL ETHER, which “screening hit: restoration” value is on record?
**A.** demonstrate PAI-1 inhibitor activity

**Q.** `CCOC(=O)C1=C(C)N=C(C)/C(=C(/O)OCC)C1c1ccccc1/C=C/C(=O)OC(C)(C)C` (stereo not shown) [LACIDIPINE] was tested. Which “screening hit: restoration” value did it give?
**A.** demonstrate PAI-1 inhibitor activity

**Q.** Which “screening hit: restoration” value does the source give for `O=C(O)C1CC([C@@H]2CCCCN2)CN2CCCCC12` (stereo partly shown) [APHYLLIC ACID] here?
**A.** demonstrate PAI-1 inhibitor activity

**Q.** Which “screening hit: restoration” value does the source give for `Cc1nc(C)c(Cl)c(O)c1Cl` [CLOPIDOL] here?
**A.** demonstrate PAI-1 inhibitor activity

**Q.** `c1ccc2c(Cc3c[nH]c4ccccc34)c[nH]c2c1` [3,3′-DIINDOLYLMETHANE] was tested. Which “screening hit: restoration” value did it give?
**A.** demonstrate PAI-1 inhibitor activity

**Q.** Which “screening hit: restoration” value does the source give for `COc1ccccc1/C=C\C(=O)O` [COUMARINIC ACID METHYL ETHER] here?
**A.** demonstrate PAI-1 inhibitor activity

**Q.** Which “screening hit: restoration” value does the source give for `NCCC(=O)N[C@@H](Cc1c[nH]cn1)C(=O)O` [CARNOSINE] here?
**A.** demonstrate PAI-1 inhibitor activity

**Q.** For `COc1cc(OC)c2c(c1)O[C@H](c1ccc(OC)c(OC)c1)[C@@H](O)C2`, which “screening hit: restoration” value is on record?
**A.** demonstrate PAI-1 inhibitor activity

**Q.** Which “screening hit: restoration” value does the source give for `O=c1c(-c2ccccc2)coc2cc(O)cc(O)c12` [5,7-DIHYDROXYISOFLAVONE] here?
**A.** demonstrate PAI-1 inhibitor activity

**Q.** For `COc1ccc(CCN(C)CCC[C@](C#N)(c2ccc(OC)c(OC)c2)C(C)C)cc1OC` [Benzeneacetonitrile, Alpha-[3-[[2-(3,4-dimethoxyphenyl)ethyl]methylamino]propyl]-3,4-dimethoxy-Alpha-(1-methylethyl)-, (R)-], which “screening hit: restoration” value is on record?
**A.** demonstrate PAI-1 inhibitor activity

**Q.** `CCc1oc2ccccc2c1C(=O)c1cc(Br)c(O)c(Br)c1` [NSC 85433] was tested. Which “screening hit: restoration” value did it give?
**A.** demonstrate PAI-1 inhibitor activity

**Q.** With `C[N+](C)(C)CCOC(N)=O` [CARBACHOL] as the molecule, how does the “screening hit: restoration” value read?
**A.** demonstrate PAI-1 inhibitor activity

**Q.** With `CC(C)=CCCC1(C)C=Cc2c(O)c3c(c(CC=C(C)C)c2O1)OC12C(=CCCC1C(C)(C)O[C@@]2(C/C=C(\C)C(=O)O)C(=O)O)C3=O` (stereo partly shown) [GARCINOLIC ACID] as the molecule, how does the “screening hit: restoration” value read?
**A.** demonstrate PAI-1 inhibitor activity

**Q.** How did the “screening hit: restoration” value turn out when `C=C[C@@](C)(O)CC[C@H]1C(=C)C[C@H](O)[C@H]2C(C)(C)CCC[C@]12C` [LARIXOL] was run?
**A.** demonstrate PAI-1 inhibitor activity

**Q.** How did the “screening hit: restoration” value turn out when `CCN(CC)CCOc1ccc(C(=C(Cl)c2ccccc2)c2ccccc2)cc1` [CLOMIPHENE CITRATE] was run?
**A.** demonstrate PAI-1 inhibitor activity

**Q.** How did the “screening hit: restoration” value turn out when `C[C@H]1COc2c(C3(N)CC3)c(F)cc3c(=O)c(C(=O)O)cn1c23` [PAZUFLOXACIN] was run?
**A.** demonstrate PAI-1 inhibitor activity

**Q.** `C=CC1=C(C(=O)O)N2C(=O)[C@@H](NC(=O)C(NOCC(=O)O)c3csc(N)n3)[C@H]2SC1` (stereo partly shown) [CEFIXIME TRIHYDRATE] was tested. Which “screening hit: restoration” value did it give?
**A.** demonstrate PAI-1 inhibitor activity

**Q.** With `CC(CCC(=O)O)[C@H]1CCC2C3CCC4CCCC[C@]4(C)C3CC[C@@]21C` (stereo partly shown) [URSOCHOLANIC ACID] as the molecule, how does the “screening hit: restoration” value read?
**A.** demonstrate PAI-1 inhibitor activity

**Q.** How did the “screening hit: restoration” value turn out when `CC(C)(C)NC[C@H](O)c1ccc(O)c(CO)c1` [LEVALBUTEROL HYDROCHLORIDE] was run?
**A.** demonstrate PAI-1 inhibitor activity

**Q.** How did the “screening hit: restoration” value turn out when `COc1ccc(-c2coc3cc(O)ccc3c2=O)c(O)c1O` [KOPARIN] was run?
**A.** demonstrate PAI-1 inhibitor activity

**Q.** How did the “screening hit: restoration” value turn out when `Oc1c(Cl)cc(Cl)cc1Sc1cc(Cl)cc(Cl)c1O` [BITHIONOL] was run?
**A.** demonstrate PAI-1 inhibitor activity

**Q.** `CN1CCN(CC(=O)N2c3ccccc3C(=O)Nc3cccnc32)CC1` [PIRENZEPINE HYDROCHLORIDE] was tested. Which “screening hit: restoration” value did it give?
**A.** demonstrate PAI-1 inhibitor activity

**Q.** How did the “screening hit: restoration” value turn out when `NCC1CCC(C(=O)Oc2ccc(CCC(=O)O)cc2)CC1` (stereo not shown) [CETRAXATE HCl] was run?
**A.** demonstrate PAI-1 inhibitor activity

**Q.** With `O=C(O[C@@H]1Cc2c(O)cc(O)cc2O[C@@H]1c1ccc(O)c(O)c1)c1cc(O)c(O)c(O)c1` [EPICATECHIN MONOGALLATE] as the molecule, how does the “screening hit: restoration” value read?
**A.** demonstrate PAI-1 inhibitor activity

**Q.** How did the “screening hit: restoration” value turn out when `CCOc1ccc(C(=O)c2ccc(O)c(O)c2O)cc1` [2,3,4-TRIHYDROXY-4′-ETHOXYBENZOPHENONE] was run?
**A.** demonstrate PAI-1 inhibitor activity

**Q.** With `CC[C@@]1(O)C[C@@H]2CN(CCc3c([nH]c4ccccc34)[C@](C(=O)OC)(c3cc4c(cc3OC)N(C)[C@@H]3[C@]45CCN4CC=C[C@@](CC)(C(O)[C@]3(O)C(N)=O)[C@H]45)C2)C1.O=S(=O)(O)O` (stereo partly shown) [VINDESINE SULFATE] as the molecule, how does the “screening hit: restoration” value read?
**A.** demonstrate PAI-1 inhibitor activity

**Q.** `O=C1Nc2ccc(Cl)cc2[C@@](C#CC2CC2)(C(F)(F)F)O1` [EFAVIRENZ] was tested. Which “screening hit: restoration” value did it give?
**A.** demonstrate PAI-1 inhibitor activity

**Q.** `COc1ccc2[nH]cc(C3=CCNCC3)c2c1` [RU 24969] was tested. Which “screening hit: restoration” value did it give?
**A.** demonstrate PAI-1 inhibitor activity

**Q.** Which “screening hit: restoration” value does the source give for `O=c1c(-c2cc(O)c(O)c(O)c2)coc2cc(O)c(O)c(O)c12` [IRIGENOL] here?
**A.** demonstrate PAI-1 inhibitor activity

**Q.** Which “screening hit: restoration” value does the source give for `c1ccc(-c2ccc(C(c3ccccc3)n3ccnc3)cc2)cc1` (stereo not shown) [BIFONAZOLE] here?
**A.** demonstrate PAI-1 inhibitor activity

**Q.** With `C=C1c2cccc(O)c2C(=O)C2=C(O)[C@]3(O)C(=O)C(C(N)=O)=C(O)[C@@H](N(C)C)[C@@H]3[C@@H](O)[C@H]12` [METHACYCLINE HYDROCHLORIDE] as the molecule, how does the “screening hit: restoration” value read?
**A.** demonstrate PAI-1 inhibitor activity

**Q.** Which “screening hit: restoration” value does the source give for `CCN(CC)CCOC(=O)C(c1ccccc1)C1CCCCC1` (stereo not shown) [DROFENINE HYDROCHLORIDE] here?
**A.** demonstrate PAI-1 inhibitor activity

**Q.** How did the “screening hit: restoration” value turn out when `NC(CO)C(=O)NNCc1ccc(O)c(O)c1O` (stereo not shown) [BENSERAZIDE HYDROCHLORIDE] was run?
**A.** demonstrate PAI-1 inhibitor activity

**Q.** For `CC[C@@]1(O)C[C@H](O[C@H]2C[C@H](N(C)C)[C@H](O)[C@H](C)O2)c2c(cc3c(c2O)C(=O)c2c(O)cccc2C3=O)[C@H]1C(=O)OC` [AKLAVINE HYDROCHLORIDE], which “screening hit: restoration” value is on record?
**A.** demonstrate PAI-1 inhibitor activity

**Q.** For `O=C(OC1Cc2c(O)cc(O)cc2O[C@@H]1c1cc(O)c(O)c(O)c1-c1c([C@@H]2Oc3cc(O)cc(O)c3C[C@@H]2OC(=O)c2cc(O)c(O)c(O)c2)cc(O)c(O)c1O)c1cc(O)c(O)c(O)c1` (stereo partly shown) [2′,2′-BISEPIGAL[…]], which “screening hit: restoration” value is on record?
**A.** demonstrate PAI-1 inhibitor activity

**Q.** Which “screening hit: restoration” value does the source give for `Oc1cc(O)c2c(c1)O[C@H](c1cc(O)c(O)c(O)c1)[C@H](O)C2` [EPIGALLOCATECHIN] here?
**A.** demonstrate PAI-1 inhibitor activity

**Q.** How did the “screening hit: restoration” value turn out when `O=C(O)c1cc(O)c2c(c1)[C@H]([C@H]1c3cc(C(=O)O)cc(O)c3C(=O)c3c(O[C@@H]4O[C@H](CO)[C@@H](O)[C@H](O)[C@H]4O)cccc31)c1cccc(O[C@@H]3O[C@H](CO)[C@@H](O)[C@H](O)[C@H]3O)c1C2=O` [SENNOSIDE A] was run?
**A.** demonstrate PAI-1 inhibitor activity

**Q.** For `CC(C)=CCCC1(C)C=Cc2c(O)c3c(c(CC=C(C)C)c2O1)OC12C(=CC4CC1C(C)(C)OC2(C/C=C(/C)C(=O)O)C4O)C3=O` (stereo not shown) [DIHYD[…]], which “screening hit: restoration” value is on record?
**A.** demonstrate PAI-1 inhibitor activity
